Results published in a melting point compilation (Tetko et al.; mined from patent text by program, amines drawn as free bases though some values may be those of a salt).

| melting point | SMILES |
| --- | --- |
| 115 to 117 °C | CCN(Cc1ccccc1)C(=O)c1c(-c2ccncc2)c(-c2ccc(F)cc2)nn1CC |
| 225 °C | O=C(O)c1cnn2c(C(F)(F)F)cc(-c3ccc(OC(F)(F)F)cc3)nc12 |
| 86 to 87 °C | CCc1nc2ccc(F)cc2c(OC(=O)C2CC2)c1C |
| 116 to 118 °C | CC(C)CN(C)c1ccccc1CS(=O)c1nc2ncccc2[nH]1 (centres undefined) |
| 201 to 202 °C | O=C(O)C(CBr)(c1ccccc1)c1ccccc1 |
| 66 to 67.5 °C | CCCCCCCCCCc1c(C)nc2ccccn2c1=O |
| 167 to 170 °C | O=C(Nc1ccccc1)Nc1ccc(Cc2ccc(NC3=NCCN3)cc2)cc1 |
| 95 to 97 °C | O=C1CCCN1c1ccc(F)cc1F |
| 273 to 274 °C | CN1C(C(=O)Nc2ccccc2)=C(O)c2ccc3ccccc3c2S1(=O)=O |
| > 300 °C | Cc1nn(-c2ccccn2)c2nc3ccccc3c(C(N)=O)c12 |
| 181 to 184 °C | O=C(O)c1ccccc1-c1ccc(C(F)(F)F)c(Cl)c1 |
| 178 °C | CN(C(=O)c1ccccc1NC(=O)N[C@@H](Cc1ccc(NC(=O)c2c(Cl)cccc2Cl)cc1)C(=O)O)c1ccccc1 |
| 127 to 128 °C | S=C(NCCCN1CCN(Cc2ccc(Cl)cc2)CC1)NC1CCCCC1 |
| 115 to 120 °C | CCC#COc1ccc(S(=O)(=O)NC(CSc2ccccn2)C(=O)NO)cc1 (centres undefined) |
| 98 to 99 °C | CCCSc1ncc(CCCC(=O)O)n1Cc1ccccc1Cl |
| 103 to 104 °C | O=C(O)c1cccc2oc(-c3ccccc3OCc3ccccc3)nc12 |
| 200 to 202 °C | COC(=O)c1cc(-c2ccccc2Cl)c(=O)n2ncc3ccc(Cl)cc3c12 |
| 97 to 98 °C | O=C(Nc1ccccc1)C(Br)(Br)Br |
| 106 to 107 °C | CC(=O)NCCC1CCc2ccn3nc(C)cc3c21 (centres undefined) |
| 103 to 105 °C | Oc1cc2c3c(sc2c(Cl)c1Cl)CCCC3 |
| 135 to 136 °C | CCCCCCOc1ccc2c(CC#N)c(OCCCCCC)ccc2c1CC#N |
| 132 to 134 °C | O=[N+]([O-])c1ccc(N2CCC2)nc1 |
| 91.5 to 93.5 °C | O=C(Nc1ccc(Oc2cccc(Cl)c2)c(Cl)c1)c1ccccn1 |
| 95 °C | CCOC(=O)C=Cc1ccc(OCc2ccccn2)cc1 |
| 156 to 158 °C | CC(=O)SCCC(=O)N1c2ccccc2C(C)(C)C1C(N)=O (centres undefined) |

| melting point | SMILES |
| --- | --- |
| 170 to 171 °C | NS(=O)(=O)c1cccc(C(O)CO)c1 (centres undefined) |
| 184 to 185 °C | CCN(c1nc(-c2c(F)cccc2OC)c2[nH]ncc2n1)c1ccc(C(F)(F)F)cc1Cl |
| 109 to 111 °C | CN1C(=O)CC[C@]2(C)c3ccc(-c4cccc(NC(c5ccccc5)c5ccccc5)c4)cc3CC[C@@H]12 |
| 99 to 100 °C | Nc1nc(-c2ccc(CCCCCl)s2)cs1 |
| > 250 °C | NS(=O)(=O)c1ccc(NN=C2C(=O)Nc3ccc(C(=O)NCc4ccco4)cc32)cc1 |
| 155 to 157 °C | COCc1ccc(C(=O)NC(C#N)n2cccn2)cc1 (centres undefined) |
| 185 to 187 °C | CNC(=O)c1cccc(C)c1Nc1nc(Nc2ccc3c(c2)N(CCOC)C(=O)CCC3)ncc1Cl |
| 113 to 114 °C | O=C(CCCCCBr)Nc1cc(Cl)c(O)c(Cl)c1 |
| 159 to 168 °C | c1ccc(C(CCN2CC3=C(C2)c2cccc4cccc3c24)(c2ccccc2)c2ccccc2)cc1 |
| 116 to 118 °C | CC(C)(C)OC(=O)c1cc(N2CCOCC2)cc([N+](=O)[O-])c1 |
| 131 °C | CC(C)(O)C(=O)c1ccc(F)cc1 |
| 87 to 89 °C | CCOP(=O)(CCCCC1(C(=O)NCC(F)(F)F)c2ccccc2-c2ccccc21)OCC |
| 67 to 68 °C | CCCCCCCCCCCCC(C)(CO)CO |
| 140 to 143 °C | COC(=O)CCCc1cc2cc(Cl)ccc2n1S(=O)(=O)c1cc(C)cc(C)c1 |
| 58 to 61 °C | CCN(c1cccc2cc(C(=O)NCCSC(c3ccccc3)(c3ccccc3)c3ccccc3)[nH]c12)S(=O)(=O)c1cccs1 |
| 67 to 69 °C | CC(Oc1cccc(Cl)c1)C(=O)NCCO[N+](=O)[O-] (centres undefined) |
| 109 to 110 °C | CCN(CC)CCNC(=O)c1cc(Cl)c(N)cc1OCC(=O)C(C)C |
| 104 to 106 °C | CC(C)c1cccc(C(C)C)c1NC(=O)CNCC1(Nc2ccccc2)CCCCC1 |
| 264 to 265 °C | CC(=O)c1ccc(Nc2nc(N)c(C(=O)c3ccccc3[N+](=O)[O-])s2)cc1 |
| 83 to 84 °C | O=C(O)Cc1ccc[nH]1 |
| 70 to 73 °C | O=C1CC(c2ccc(F)cc2)c2ccc(F)cc21 (centres undefined) |
| 131 to 133 °C | CNC(=NS(C)(=O)=O)NCCCCCc1nc(N)nc(NC(N)=NCC(F)(F)F)n1 |
| 129 to 130 °C | CCCNc1ccc(NCc2ccc(NCCC)nc2)nc1 |
| 132 to 135 °C | O=C(O)CCC(=O)N1C2CCC(C2)C1C(=O)O (centres undefined) |
| 114 to 116 °C | CCOC(=O)c1ccccc1CN1C(=O)C(CCO)Oc2ccccc21 (centres undefined) |

| melting point | SMILES |
| --- | --- |
| 167 to 168 °C | COC(=O)c1ccc(CNC(=O)c2cccc(-c3nnn(Cc4ccc(OC)cc4)n3)c2)cc1 |
| 116 to 118 °C | CCOC(=O)c1cnc(Cl)cc1NCc1ccc(OC)c(Cl)c1 |
| 113 to 115 °C | CC(C)CCOCc1cc(-n2nc(C(N)=O)nc2-c2ccccc2F)ccc1Cl |
| 61 °C | CC[C@@](O)(CC(=O)N1C(=O)O[C@@H](c2ccccc2)[C@H]1c1ccccc1)c1ccnc(OC)c1COCc1ccccc1 |
| 169 to 170 °C | Cc1cc(C)c(-n2ccc3c(Cl)nnc(Cl)c32)c(C)c1 |
| 148 to 152 °C | N#CCCC1(C(N)=O)c2ccccc2-c2ccccc21 |
| 96 to 98 °C | CCCCC#Cc1ccc(-c2cc(C(F)(F)F)nn2-c2ccc(S(C)(=O)=O)cc2)cc1 |
| 115 to 117 °C | CS(=O)(=O)OC1=C(C(=O)O)N2C(=O)[C@@H](NC(=O)Cc3ccccc3)[C@H]2CN1 (racemic) |
| 59 to 60 °C | CCCCCCCCCCCCCCc1ccc(CC)c(O)c1 |
| 69.1 to 70.4 °C | OC1CCCCC1N1CCC(Cc2ccc(Cl)cc2)CC1 (centres undefined) |
| 144 °C | CC1(C)NC(=S)NC1=S |
| 280 °C | COc1c(C)cc(N2CCN(c3ccc(-n4c(C)n[nH]c4=O)cc3)CC2)cc1C |
| 119 to 120 °C | Cc1cc(C(=O)NCO)ncc1C(c1c(F)ccc(F)c1F)S(=O)(=O)c1ccc(F)c(F)c1 (centres undefined) |
| 77 to 80 °C | CCOC(=O)C1(C(=O)Nc2ccc(Cl)cc2CC)CC1 |
| 126 to 130 °C | C=C=Cn1[nH]c2ccccc2c1=O |
| 236 to 240 °C | CCOC(=O)C1CN2c3c(c(F)c(F)c(F)c3C1=O)CCN2C (centres undefined) |
| 217 to 222 °C | Cc1cc(O)n2nc(CBr)nc2n1 |
| 134 to 136 °C | CCOC(=O)C1=C(C)NC(c2nccn2C)=NC1c1ccc(F)cc1 (centres undefined) |
| 160 to 163 °C | CCOC(=O)C(C)Oc1cc(N=C(C(N)=O)N2CCCC2)c(Cl)cc1Cl (centres undefined) |
| 276 to 278 °C | CCCOc1ccc(S(N)(=O)=O)cc1C1=NC(=O)C2=NC=NC2=N1 |
| 202 to 203 °C | COc1cc(CCCC2OC(=O)NC2=O)ccc1OCc1csc(/C=C/c2ccccc2)n1 (centres undefined) |
| 276 to 277 °C | O=c1nc(-c2c[nH]c3ccccc23)sc2ccccc12 |
| 100 to 110 °C | CCCCc1nc(Cl)c(CC(=O)O)c(Cc2ccc(-c3ccccc3C(=O)O)cc2)n1 |
| 360 °C | CN(C)c1ccc2nc(N)c(C#N)c(O)c2c1 |
| 49 to 53 °C | CCCOc1nc2ccc(I)cc2c(=O)n1CCC |

| melting point | SMILES |
| --- | --- |
| 224 to 228 °C | COc1cc2nc(N3CCNCC3)nc(N)c2cc1OC |
| 153 to 155 °C | Cc1noc(NS(=O)(=O)c2sc3ccc(Cl)cc3c2C)c1Br |
| 163 to 164 °C | O=C(O)CCC/C=C/c1nn(-c2ccc([N+](=O)[O-])cc2)c2c1CCC2 |
| 97.9 °C | COCCOc1ccc(O)cc1 |
| 108 to 109 °C | COc1ccc(Cn2cc3nc(Cl)nc(Cl)c3n2)cc1 |
| 180 to 182 °C | Cc1c(C(=O)O)cnn1-c1c(Cl)cccc1Cl |
| 142 to 144 °C | CC(=O)Cc1nc2cc(C)ccc2c(=O)o1 |
| 134 to 135 °C | CN(C(=O)c1ccc2nonc2c1)C1CCCOC1 (centres undefined) |
| 123 to 126 °C | N#CC=C(C#N)Nc1ccccc1 |
| 143 to 144 °C | COc1cc(CN2CCN(Cc3ccc(NC(=O)C4=Cc5cc(-c6ccc(C)cc6)ccc5CC4)cc3)CC2)cc(OC)c1OC |
| 153 to 154 °C | COc1nc(C)c(C)nc1NC(=O)N1CCN(c2cc(F)cc(F)c2)CC1 |
| 240 °C | Cc1cc(-c2cnn3c(C(F)(F)F)cc(-c4ccc(Cl)c(C)c4)nc23)ccn1 |
| 143 to 144 °C | Cc1cc(N2CCN(c3ccc(C(F)(F)F)cn3)CC2)cc(C)c1O |
| 149 to 151 °C | Cn1nc(SC2c3cc(C#N)ccc3CC(C)(C)C2O)ccc1=O (centres undefined) |
| 69 to 71 °C | CC(=O)c1cc2c(cc1Cl)C(C)(C)CC2(C)C |
| 216 to 219 °C | COc1ccc(C(=O)C2=C(O)C(=O)N(C3OCCO3)C2c2ccccc2)cc1 (centres undefined) |
| 165 °C | NS(=O)(=O)c1ccc(Nc2nc(OCC3CC=CCC3)c3nc[nH]c3n2)cc1 (centres undefined) |
| 152 to 154 °C | O=C1Cc2cc(NC(=O)C(=O)N3CCC(Cc4ccc(F)cc4)CC3)ccc2N1 |
| 71 to 76 °C | NCCOc1ccc(/C(=C(\c2ccccc2)C(F)(F)F)c2ccccc2)cc1 |
| 194 to 196 °C | O=S(=O)(Cc1ccc(O)cc1)Nc1ncc(-c2ccc(O)cc2)nc1Cc1ccccc1 |
| 177 to 179 °C | NNN=CNCCC(=O)O |
| 232 °C | O=C1CCC(c2ccccc2)(c2ccccc2)[C@@H]2CN(C(=O)Cc3ccccc3O)C[C@H]12 (racemic) |
| 146 to 148 °C | CCOC(=O)c1ccc2c(SC(=O)N3CCSCC3)cccn2c1=O |

| SMILES | melting point |
| --- | --- |
| Cn1c(=O)c2[nH]c(C3(N)CCCC3)nc2n(C)c1=O | 288 to 290 °C |
| CC(=O)OC1CCC2(C)C(=CC(=O)C3C4CC(OC(C)=O)C(=O)C4(C)CCC32)C1 (centres undefined) | 206 °C |
| CCCCCCc1cc2c(s1)-n1c(C)nnc1CN=C2c1cccc(C)c1C | 103 to 105 °C |
| COc1cccc(C=O)c1 | 83 to 84 °C |
| S=C(Nc1ccccc1)OC1CN2CCC1CC2 (centres undefined) | 132 to 133 °C |
| Cc1cnc2n1-c1ccc(Cl)cc1C(c1ccccc1Cl)=NC2 | 148 to 149 °C |
